Measured values published in PubChem BioAssay AID624419 (Sanford-Burnham Center for Chemical Genomics, 2012).

System: mouse plasma stability, percent remaining
Test: stability of compounds in murine plasma, second set, biochemical ADME (AID 624419)
Settings: at 1 µM

SMILES | plasma stability
O=C(COC(=O)C12CC3CC(CC(C3)C1)C2)NCc1ccco1 | 2.35%
O=C1C2CC=CCC2C(=O)N1c1n[nH]c(-c2ccccc2)n1 (stereo not given) | 52.7%
Cc1ccc(S(=O)(=O)n2c(N)nc3ccccc32)cc1 | 100%
C/C=C/Cn1c(SCCCc2ccccc2)nc2c1c(=O)[nH]c(=O)n2C | 100%
COc1ccc(N(C(=O)CCl)C(C(=O)NCCc2ccccc2)c2cccs2)cc1Cl (stereo not given) | 15.3%
CCCN(CCC)CCNC(=O)C1CCN(Cc2nc(-c3ccc(Cl)cc3)oc2C)CC1 | 100%
Cc1nc(SCc2nc3ccccc3[nH]2)c2oc3ccccc3c2n1 | 100%
c1ccc(CC2CCN(c3ncnc4sccc34)CC2)cc1 | 100%
Cc1cc(C)nc(-n2nc(C)c(Sc3ccc(F)cc3)c2N)n1 | 93.6%
COc1nc(-c2ccccc2)nnc1-c1ccccc1 | 100%
CCOc1ccc(-c2nc(-c3ccncc3)no2)cc1OCC | 92.1%
Cc1cc(C)n(-c2nc(NCCCO)c3c4c(sc3n2)CCCC4)n1 | 100%
Cc1ccc(C(=O)n2c3ccccc3c3ccccc32)cc1 | 100%
COc1ccc(OC)c(S(=O)(=O)Nc2cnc3ccccc3c2)c1 | 100%
O=C1CCCC2=C1C1(CCCC1)N=C(Nc1nc3ccccc3o1)N2 | 100%
Cn1nnnc1Sc1ncnc2scc(-c3ccccc3)c12 | 81.9%
CC[C@H]1CN2CCc3cc(OC)c(OC)cc3[C@@H]2C[C@@H]1C[C@H]1NCCc2cc(OC)c(OC)cc21 | 100%
CC1CCCN(C(C(=O)Nc2ccc3c(c2)OCCO3)c2ccccc2)C1 (stereo not given) | 100%
O=S1(=O)Nc2c(ccc3cccnc23)-c2ccccc21 | 100%
O=C(COc1ccccc1Br)NCCc1nc2ccccc2[nH]1 | 100%
Cc1ccc(S(=O)(=O)C(c2ccccc2)c2c(C)noc2C)cc1 (stereo not given) | 97.8%
COc1ccc(CNCc2cccc3ccccc23)cc1 | 80.5%

SMILES | plasma stability
CCN1CCN(c2nc3ccccc3nc2C(C#N)C(=O)OC2CCCCC2)CC1 (stereo not given) | 15.5%
COc1cccc(-c2nc(-c3ccc(NC(=O)Cc4ccccc4OC)cc3)no2)c1 | 100%
O=C1NCCCc2c1oc1ccc(O)cc21 | 97.2%
COC(=O)c1ccccc1NC(=O)c1ccc(F)cc1 | 17%
Cc1ccnc(NC(=O)CCCOc2cc(=O)n(C)c3ccccc23)c1 | 0.15%
Brc1cc2c(cc1C1Nc3ccccc3C3C=CCC31)OCO2 (stereo not given) | 100%
CS(=O)(=O)c1ccc(C(=O)OCC(=O)NC23CC4CC(CC(C4)C2)C3)cc1[N+](=O)[O-] | 91.4%
Cc1ccc(S(=O)(=O)NCc2ccc(C(=O)NCCN(Cc3ccccc3)C(C)C)cc2)cc1 | 100%
Cc1cccc(-n2cnc3cc(C(=O)N4CCCCC4)ccc32)c1 | 87.1%
O=C(CSc1cccc2cccnc12)N1CCCC1 | 100%
COc1ccc(C2CC(c3ccccc3)=NN2c2ccc(S(N)(=O)=O)cc2)cc1 (stereo not given) | 100%
Cc1ccc(-n2c(N)c(C#N)c(-c3ccccc3)c(C#N)c2=O)cc1 | 100%
CCCC(=O)Nc1cccc(NC(=O)c2ccccc2Br)c1 | 0.14%
Cc1ccc(C)c(NS(=O)(=O)c2cc(C(=O)Nc3ccccc3-c3ccccc3)ccc2Cl)c1 | 83.4%
COc1ccc(CSc2nc(C)cc(=O)[nH]2)cc1 | 100%
O=S(=O)(NC1CCCCC1N1CCOCC1)c1ccc(Cl)cc1 (stereo not given) | 100%
CCCN1CNc2c(c(=O)[nH]c(=S)n2CCc2ccc(OC)c(OC)c2)C1 | 99.5%
O=C(c1ccccn1)N(Cc1cccs1)C1(C(=O)NC2CCCCC2)CCCCC1 | 100%
CSc1nc(-c2ccc(C)cc2)nc(C(Cl)Cl)n1 | 84.8%
Cc1cc(C(=O)CN2C(=O)CCC2=O)c(C)n1Cc1ccccc1 | 98%
O=c1[nH]c2c(s1)C(c1cccnc1)C1C3CCC(C3)C1S2 (stereo not given) | 100%
CCCn1ncc(CN2CCCC(C(=O)c3cccc(OC(C)C)c3)C2)c1C (stereo not given) | 96.7%

SMILES | plasma stability
Cc1cc2c(s1)c1cnn(Cc3ccccc3F)c(=O)c1n2C | 89.8%
CCOc1ccc(NC(=S)N2CCC(C(O)(c3ccccc3)c3ccccc3)CC2)cc1 | 73.7%
c1ccc2c(Nc3nnc(-c4ccncc4)s3)cccc2c1 | 96.4%
Cc1ccc(NS(=O)(=O)c2ccc3c(c2)CCC(=O)N3)cc1C | 100%
C=CCn1c(SCC(=O)c2ccc(O)c(O)c2)nnc1-c1ccccc1OC | 73.5%
N#C/C(=C\c1ccc([N+](=O)[O-])o1)c1nc2ccccc2[nH]1 | 9.6%
N#Cc1ccccc1CSc1nc2ncc(Br)cc2[nH]1 | 100%
COc1ccc(S(=O)(=O)N2CCN(S(=O)(=O)c3ccc4c(c3)OCCO4)CC2)cc1 | 100%
COc1cc(NC(=O)c2cc(C3CC3)on2)c(OC)cc1Cl | 42.4%
NC(=O)C1CCN(c2nc(-c3ccc(Br)cc3)cs2)CC1 | 82.8%
Cc1ccc(N2CCN(S(=O)(=O)N3CCCCC3)CC2)c(C)c1 | 100%
O=c1[nH]c(SCc2ccc(Cl)cc2)nc2c1CCC2 | 100%
O=C(CCNS(=O)(=O)c1cccc2nsnc12)N1CCN(c2ccccn2)CC1 | 100%
O=[N+]([O-])c1ccc(CN2CCOCCOCCN(Cc3ccc([N+](=O)[O-])cc3)CCOCC2)cc1 | 100%
CC(=O)c1ccc(N2CCN(S(=O)(=O)c3ccc4c(c3)CC(=O)N4)CC2)cc1 | 100%
O=C(O)c1ccc(N2C(=O)/C(=C/c3ccc(-c4ccc([N+](=O)[O-])cc4)o3)C=C2c2ccccc2)cc1 | 99.7%
O=C(O)c1ccccc1OCc1ccccc1Br | 100%
Brc1ccc2c(c1)CN1CCCC1=N2 | 100%
COc1ccc(Sc2ccc(NC(=O)c3ccccc3Cl)cc2C#N)cc1 | 91.6%
Cn1cnc([N+](=O)[O-])c1Sc1ncnc2nc[nH]c12 | 84.1%
COc1ccccc1N(/N=C1\Sc2ccccc2C1=O)C(C)=O | 4.35%
CCCc1nc2c(=O)n(C)c(=O)nc-2n(C)n1 | 56.7%

SMILES | plasma stability
CN(C)C1=C(Cl)C(=O)N(c2ccc(Cl)c(Cl)c2)C1=O | 6.46%
Cc1ccc(C)c(OCCn2cc(C(=O)O)c3ccccc32)c1 | 94.8%
COc1ccc(OC)c(-c2nnc3n2N=C(c2ccc(OC)c(OC)c2)CS3)c1 | 100%
Cc1ccccc1N1CCN(c2ncnc3c2cnn3Cc2ccc(Cl)cc2)CC1 | 100%
CCc1nnc(NC(=O)c2ccc(NS(=O)(=O)c3ccccc3)cc2)s1 | 97.6%
CCCc1cc(C(=O)N(C2CCCCC2)C2CCCCC2)no1 | 84%
O=C(O)CCC(NS(=O)(=O)c1ccc(-c2ccccc2)cc1)C(=O)O (stereo not given) | 88.8%
c1ccc(-c2nnc(N3CCOCC3)nc2-c2ccccc2)cc1 | 100%
CCCOc1ccc(-c2nc(OC)c3ccccc3n2)cc1 | 100%
CN(C)c1nc(N)nc(CSc2nnnn2-c2cccc3ccccc23)n1 | 100%
O=C(O)c1cccnc1SCCc1ccccc1 | 100%
Cc1ccc(NC(=O)CCC(=O)N/N=C/c2ccc([N+](=O)[O-])o2)cc1C | 73.3%
Cc1cc(-c2nnc3n2CCCCC3)c(C)n1-c1ccccc1 | 91.3%
COc1ccc(S(=O)(=O)n2nc(OC(=O)c3ccccc3)cc2N)cc1 | 73.7%
CCc1oc2ccccc2c1C(=O)c1cc(Br)c(O)c(Br)c1 | 100%
CC(C)C(=O)NC(c1ccco1)c1ccc2cccnc2c1O (stereo not given) | 95.2%
COc1ccc(C2c3c(ncn(CCN4CCOCC4)c3=N)Oc3ccc4ccccc4c32)cc1OC (stereo not given) | 100%
CCOC(=O)C(C)Oc1cccc2c(=O)n(CC(=O)Nc3ccc4c(c3)OCCO4)ccc12 (stereo not given) | 0.19%
CN(C)c1oc(-c2ccc(OCc3ccc(Cl)cc3)cc2)nc1C#N | 91.4%
